The IC50 is the concentration at which inhibition is half-maximal.

For experiment [1], the target named is T1, NLRP3 (Homo sapiens, UniProt Q96P20). The experiment in a line: Human whole blood IL1β release assay (LPS + nigericin, AlphaLisa IL-1β; HWB IC50). Particulars: IL-1β release. Set-up: Human whole blood in Li-heparin tubes was obtained from healthy donors from a volunteer donor panel; from tissue; host or cells: human whole blood from healthy donors. The format is cell-based. Here is the method: For systemic delivery, the ability to inhibit NLRP3 when the compounds are present within the bloodstream is of great importance. For this reason, the NLRP3 inhibitory activity of a number of compounds in human whole blood was investigated in accordance with the following protocol.
Human whole blood in Li-heparin tubes was obtained from healthy donors from a volunteer donor panel. • 1. Plate out 80 μl of whole blood containing 1 μg/ml of LPS in 96-well, clear bottom cell culture plate (Corning #3585) • 2. Add 10 μl compound (8 points half-log dilution with 10 μM top dose) or vehicle (DMSO 0.1% FAC) to the appropriate wells • 3. Incubate for 3 hrs at 37° C., 5% CO2 • 4. Add 10 μl nigericin (Sigma #N7143) (10 μM FAC) to all wells • 5. Incubate for 1 hr at 37° C., 5% CO2 • 6. At the end of the incubation period, spin plates at 300×g for 5 mins to pellet cells and remove 20 μl of supernatant and add to 96-well v-bottom plates for IL-1β analysis (note: these plates containing the supernatants can be stored at −80° C. to be analysed at a later date) • 7. IL-1β was measured according to the manufacturer protocol (Perkin Elmer-AlphaLisa IL-1 Kit AL220F-5000) • 8. IC50 data is fitted to a non-linear regression equation (log inhibitor vs response-variable slope 4-parameters)
A general note: Alpha assays give light when donor and acceptor beads are brought close together.

Experiment [2] addresses T1, NLRP3. The experiment in a line: THP-1 cells pyroptosis assay (LPS + nigericin, resazurin readout; THP IC50). The format is cell-based. Further details: Seed THP-1 cells (25,000 cells/well) containing 1.0 μg/ml LPS in 40 μl of RPMI medium; host or cells: THP-1 cells. In outline: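 IC50 from 4-parameter fit of resazurin fluorescence (100 μM, 1-2 hrs), reflecting surviving cells after pyroptosis. LPS-primed (1 μg/ml) THP-1 cells in FBS-free RPMI got compound for 3 hrs at 37° C (top 10 μM, half-log, 8 points), then nigericin 5 μM for 1 hr.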
A general note: Resazurin is reduced to fluorescent resorufin, in cell work by metabolically active cells.

Each structure is given as a SMILES string. Where a name gives a salt, the structure may show the parent alone.

T1 sequence (Q96P20 whole entry): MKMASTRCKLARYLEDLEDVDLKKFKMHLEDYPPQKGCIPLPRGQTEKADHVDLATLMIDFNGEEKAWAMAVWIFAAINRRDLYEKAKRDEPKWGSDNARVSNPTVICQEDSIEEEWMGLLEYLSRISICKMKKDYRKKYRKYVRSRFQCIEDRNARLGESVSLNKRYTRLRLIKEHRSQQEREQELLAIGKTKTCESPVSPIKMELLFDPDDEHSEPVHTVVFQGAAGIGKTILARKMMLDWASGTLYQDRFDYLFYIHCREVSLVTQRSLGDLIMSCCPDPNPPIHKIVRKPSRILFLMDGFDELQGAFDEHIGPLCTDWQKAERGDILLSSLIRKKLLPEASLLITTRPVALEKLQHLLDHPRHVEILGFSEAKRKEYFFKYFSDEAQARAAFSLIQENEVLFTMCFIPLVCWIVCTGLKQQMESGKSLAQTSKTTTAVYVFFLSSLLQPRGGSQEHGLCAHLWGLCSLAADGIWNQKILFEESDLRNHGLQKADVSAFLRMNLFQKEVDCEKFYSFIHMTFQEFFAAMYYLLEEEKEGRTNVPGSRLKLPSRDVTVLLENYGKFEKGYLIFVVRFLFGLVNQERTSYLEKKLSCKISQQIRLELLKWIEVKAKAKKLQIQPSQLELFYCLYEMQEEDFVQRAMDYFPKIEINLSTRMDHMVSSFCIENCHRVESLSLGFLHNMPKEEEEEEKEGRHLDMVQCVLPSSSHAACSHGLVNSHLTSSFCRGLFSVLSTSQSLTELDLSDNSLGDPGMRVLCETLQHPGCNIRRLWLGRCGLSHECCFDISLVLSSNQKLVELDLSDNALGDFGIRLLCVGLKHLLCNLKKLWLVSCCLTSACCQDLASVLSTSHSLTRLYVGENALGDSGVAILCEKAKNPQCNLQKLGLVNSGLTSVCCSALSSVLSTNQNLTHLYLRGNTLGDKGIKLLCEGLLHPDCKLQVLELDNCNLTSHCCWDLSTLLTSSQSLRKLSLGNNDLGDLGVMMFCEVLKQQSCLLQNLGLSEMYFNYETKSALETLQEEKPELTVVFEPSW

On to `COC(C)(C)c1cc(S(=O)(=O)NC(=O)Nc2c(-c3cccnc3)cc(F)cc2C(C)C)nn1C` [Example 35, N-((4-Fluoro-2-iso-propyl-6-(pyridin-3-yl)phenyl)carbamoyl)-5-(2-methoxypropan-2-yl)-1-methyl-1H-pyrazole-3-sulfonamide], for which the figures for the 50% inhibitory concentration (IC50) on NLRP3 [1] and at NLRP3 [2] were at most 1000 nM and at most 500 nM, respectively.

Consider `CC(C)c1cc(F)cc(-c2cccc(C#N)c2)c1NC(=O)NS(=O)(=O)c1cc(CN(C)C)n(C(C)C)n1` [Example 39, N-((3′-Cyano-5-fluoro-3-iso-propyl-[1,1′-biphenyl]-2-yl)carbamoyl)-5-((dimethylamino)methyl)-1-isopropyl-1H-pyrazole-3-sulfonamide], for which the IC50 on NLRP3 [1] and on NLRP3 [2] was at most 1000 nM throughout.

As for `CC(C)c1cc(F)cc(-c2ccccc2)c1NC(=O)NS(=O)(=O)c1cc(CN(C)C)n(C)n1` [Example 40, 5-((Dimethylamino)methyl)-N-((5-fluoro-3-iso-propyl-[1,1′-biphenyl]-2-yl)carbamoyl)-1-methyl-1H-pyrazole-3-sulfonamide], the IC50 at NLRP3 [1] is at most 1000 nM; at NLRP3 [2], at most 500 nM.

With `CC(C)c1cc(F)cc(-c2cccnc2)c1NC(=O)NS(=O)(=O)c1cc(CN(C)C)n(C(C)C)n1` [Example 41, 5-((Dimethylamino)methyl)-N-((4-fluoro-2-iso-propyl-6-(pyridin-3-yl)phenyl)carbamoyl)-1-iso-propyl-1H-pyrazole-3-sulfonamide], the values for the IC50 on NLRP3 [1] and on NLRP3 [2] were at most 1000 nM and at most 500 nM, respectively.

Take `CC(C)c1cc(F)cc(-c2ccccc2)c1NC(=O)NS(=O)(=O)c1cc(CN(C)C)n(C(C)C)n1` [Example 46, 5-((Dimethylamino)methyl)-N-((5-fluoro-3-isopropyl-[1,1′-biphenyl]-2-yl)carbamoyl)-1-isopropyl-1H-pyrazole-3-sulfonamide]: the IC50 at NLRP3 [1] was at most 5000 nM; at NLRP3 [2], at most 1000 nM.

Turning to `CC(C)c1cc(F)cc(-c2ccnc(C#N)c2)c1NC(=O)NS(=O)(=O)c1cc(CN(C)C)n(C)n1` [Example 48, N-((2-(2-Cyanopyridin-4-yl)-4-fluoro-6-isopropylphenyl)carbamoyl)-5-((dimethylamino)methyl)-1-methyl-1H-pyrazole-3-sulfonamide], the IC50 at NLRP3 [1] and at NLRP3 [2] was at most 500 nM throughout.

In the case of `CCn1nc(S(=O)(=O)NC(=O)Nc2c(-c3ccnc(C#N)c3)cc(F)cc2C(C)C)cc1CN(C)C` [Example 49, N-((2-(2-Cyanopyridin-4-yl)-4-fluoro-6-isopropylphenyl)carbamoyl)-5-((dimethylamino)methyl)-1-ethyl-1H-pyrazole-3-sulfonamide], the concentration for half-maximal inhibition (IC50) at NLRP3 [1] and at NLRP3 [2] was at most 500 nM throughout.

For `COc1cc(-c2cc(F)cc(C(C)C)c2NC(=O)NS(=O)(=O)c2cc(C3(OC)COC3)n(C)n2)ccn1` [Example 52, N-((4-Fluoro-2-isopropyl-6-(2-methoxypyridin-4-yl)phenyl)carbamoyl)-5-(3-methoxyoxetan-3-yl)-1-methyl-1H-pyrazole-3-sulfonamide], the IC50 at NLRP3 [1] and at NLRP3 [2] was at most 500 nM throughout.

In the case of `COc1cc(-c2cc(F)cc(C(C)C)c2NC(=O)NS(=O)(=O)c2cn(C(C)C)cn2)ccn1` [Example 53, N-((4-Fluoro-2-isopropyl-6-(2-methoxypyridin-4-yl)phenyl)carbamoyl)-1-isopropyl-1H-imidazole-4-sulfonamide], the IC50 on NLRP3 [1] is at most 5000 nM; at NLRP3 [2], at most 500 nM.

Take `COc1cc(-c2ccc3c(c2NC(=O)NS(=O)(=O)c2ccn(C(C)C)n2)CCC3)ccn1` [Example 56, 1-Isopropyl-N-((5-(2-methoxypyridin-4-yl)-2,3-dihydro-1H-inden-4-yl)carbamoyl)-1H-pyrazole-3-sulfonamide]: the IC50 at NLRP3 [1] and at NLRP3 [2] was at most 500 nM throughout.

For the molecule `CC(C)c1cc(F)cc(-c2cccnc2)c1NC(=O)NS(=O)(=O)c1ccn(CCN(C)C)n1` [Example 57, 1-(2-(Dimethylamino)ethyl)-N-((4-fluoro-2-isopropyl-6-(pyridin-3-yl)phenyl)carbamoyl)-1H-pyrazole-3-sulfonamide], the IC50 on NLRP3 [1] and on NLRP3 [2] was at most 1000 nM throughout.

Consider `CCN(CC)CCCS(=O)(=O)NC(=O)Nc1c(-c2cccnc2)cc(F)cc1C(C)C` [Example 58, 3-(Diethylamino)-N-((4-fluoro-2-isopropyl-6-(pyridin-3-yl)phenyl)carbamoyl)propane-1-sulfonamide], for which the concentration for half-maximal inhibition (IC50) at NLRP3 [1] and on NLRP3 [2] was at most 500 nM each time.

Consider `COC1(c2cc(S(=O)(=O)NC(=O)Nc3c(-c4cccnc4)cc(F)c4c3CCC4)nn2C)COC1` [Example 59, N-((7-Fluoro-5-(pyridin-3-yl)-2,3-dihydro-1H-inden-4-yl)carbamoyl)-5-(3-methoxyoxetan-3-yl)-1-methyl-1H-pyrazole-3-sulfonamide], for which the IC50 on NLRP3 [1] is at most 1000 nM; at NLRP3 [2] it was at most 500 nM.

As for `CN(C)CCn1ccc(S(=O)(=O)NC(=O)Nc2c(-c3cccnc3)cc(F)c3c2CCC3)n1` [Example 62, 1-(2-(Dimethylamino)ethyl)-N-((7-fluoro-5-(pyridin-3-yl)-2,3-dihydro-1H-inden-4-yl)carbamoyl)-1H-pyrazole-3-sulfonamide], the IC50 on NLRP3 [1] was at most 5000 nM; at NLRP3 [2], at most 500 nM.

On to `COc1cc(-c2cc(F)c3c(c2NC(=O)NS(=O)(=O)c2ccn(CCN(C)C)n2)CCC3)ccn1` [Example 63, 1-(2-(Dimethylamino)ethyl)-N-((7-fluoro-5-(2-methoxypyridin-4-yl)-2,3-dihydro-1H-inden-4-yl)carbamoyl)-1H-pyrazole-3-sulfonamide], for which the IC50 at NLRP3 [1] and on NLRP3 [2] was at most 500 nM each time.

In the case of `CCn1nc(S(=O)(=O)NC(=O)Nc2c(-c3cccnc3)cc(F)c3c2CCC3)cc1CN(C)C` [Example 65, 5-((Dimethylamino)methyl)-1-ethyl-N-((7-fluoro-5-(pyridin-3-yl)-2,3-dihydro-1H-inden-4-yl)carbamoyl)-1H-pyrazole-3-sulfonamide], the IC50 on NLRP3 [1] and at NLRP3 [2] was at most 500 nM in each case.

Regarding `CCn1nc(S(=O)(=O)NC(=O)Nc2c(-c3ccnc(OC)c3)cc(F)c3c2CCC3)cc1CN(C)C` [Example 66, 5-((Dimethylamino)methyl)-1-ethyl-N-((7-fluoro-5-(2-methoxypyridin-4-yl)-2,3-dihydro-1H-inden-4-yl)carbamoyl)-1H-pyrazole-3-sulfonamide], the half-maximal inhibitory concentration (IC50) on NLRP3 [1] and on NLRP3 [2] was at most 500 nM in each case.

Regarding `CCn1nc(S(=O)(=O)NC(=O)Nc2c(-c3cccc(C#N)c3)ccc3c2CCC3)cc1CN(C)C` [Example 68, N-((5-(3-Cyanophenyl)-2,3-dihydro-1H-inden-4-yl)carbamoyl)-5-((dimethylamino)methyl)-1-ethyl-1H-pyrazole-3-sulfonamide], the half-maximal inhibitory concentration (IC50) was at most 1000 nM at NLRP3 [1] and at most 500 nM at NLRP3 [2].

On to `COc1cc(-c2ccc3c(c2NC(=O)NS(=O)(=O)c2ccc(=O)n(C(C)C)c2)CCC3)ccn1` [Example 70, 1-Isopropyl-N-((5-(2-methoxypyridin-4-yl)-2,3-dihydro-1H-inden-4-yl)carbamoyl)-6-oxo-1,6-dihydropyridine-3-sulfonamide], for which the IC50 at NLRP3 [1] and at NLRP3 [2] was at most 500 nM in each case.

Take `CC(C)n1cc(S(=O)(=O)NC(=O)Nc2c(-c3ccnc(C#N)c3)ccc3c2CCC3)ccc1=O` [Example 71, N-((5-(2-Cyanopyridin-4-yl)-2,3-dihydro-1H-inden-4-yl)carbamoyl)-1-isopropyl-6-oxo-1,6-dihydropyridine-3-sulfonamide, sodium salt]: the IC50 on NLRP3 [1] was at most 1000 nM; at NLRP3 [2] it was at most 500 nM.

For `CC(C)n1cc(S(=O)(=O)NC(=O)Nc2c(-c3ccnc(C#N)c3)ccc3c2CCC3)ncc1=O` [Example 72, N-((5-(2-Cyanopyridin-4-yl)-2,3-dihydro-1H-inden-4-yl)carbamoyl)-4-isopropyl-5-oxo-4,5-dihydropyrazine-2-sulfonamide, sodium salt], the half-maximal inhibitory concentration (IC50) on NLRP3 [1] is at most 1000 nM; on NLRP3 [2] it was at most 500 nM.

With `COc1cc(-c2ccc3c(c2NC(=O)NS(=O)(=O)c2cn(C(C)C)c(=O)cn2)CCC3)ccn1` [Example 73, 4-Isopropyl-N-((5-(2-methoxypyridin-4-yl)-2,3-dihydro-1H-inden-4-yl)carbamoyl)-5-oxo-4,5-dihydropyrazine-2-sulfonamide, partial ammonium salt], the half-inhibitory concentration (IC50) at NLRP3 [1] and on NLRP3 [2] was at most 500 nM in each case.

With `COc1cc(-c2ccc3c(c2NC(=O)NS(=O)(=O)C2CN(C(C)C)C2)CCC3)ccn1` [Example 76, 1-Isopropyl-N-((5-(2-methoxypyridin-4-yl)-2,3-dihydro-1H-inden-4-yl)carbamoyl)azetidine-3-sulfonamide], the IC50 on NLRP3 [1] and on NLRP3 [2] was at most 500 nM throughout.
